The target of the experiment is T1, Human Neutrophil Elastase (HNE) (Homo sapiens, UniProt P08246).
T1 construct: Human Neutrophil Elastase (HNE) purified from serum; purchased Calbiochem 324681; host or cells: natural human material (serum)
T1 sequence (P08246 30-247 limits assumed): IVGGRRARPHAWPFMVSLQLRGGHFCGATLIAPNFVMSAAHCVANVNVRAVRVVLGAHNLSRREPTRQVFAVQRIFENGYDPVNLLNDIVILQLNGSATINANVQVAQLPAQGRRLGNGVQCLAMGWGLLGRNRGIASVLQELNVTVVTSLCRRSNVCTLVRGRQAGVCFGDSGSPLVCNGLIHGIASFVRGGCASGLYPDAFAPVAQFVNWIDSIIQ
The experiment in a line: Human Neutrophil Elastase Quenched-FRET Assay. It is filed as biochemical. The conditions noted are these: HNE purified from serum; substrate MeOSuc-AAPV-AMC; 15 min preincubation, 30 min incubation at room temperature; read-out: Inhibition of Human Neutrophil Elastase IC50. The method, then: Human Neutrophil Elastase Quenched-FRET Assay
The assay uses Human Neutrophil Elastase (HNE) purified from serum (Calbiochem art. 324681; Ref. Baugh, R. J. et al., 1976, Biochemistry. 15, 836-841). HNE was stored in 50 mM NaOAc, 200 mM NaCl, pH 5.5 with added 30% glycerol at −20° C. The protease substrate used was Elastase Substrate V Fluorogenic, MeOSuc-AAPV-AMC (Calbiochem art. 324740; Ref. Castillo, M. J. et al., 1979, Anal. Biochem. 99, 53-64). The substrate was stored in DMSO at −20° C. The assay additions were as follows: Test compounds and controls were added to black 96-well flat-bottom plates (Greiner 655076), 1 μL in 100% DMSO, followed by 30 μL HNE in assay buffer with 0.01% TritonX-100. The assay buffer constitution was: 100 mM Tris (pH 7.5) and 500 mM NaCl. The enzyme and the compounds were incubated at room temperature for 15 minutes. Then 30 μl substrate in assay buffer was added. The assay was stopped after 30 minutes incubation at room temperature by adding 60 μl stop solution (140 mM acetic acid, 200 mM sodium monochloroacetate, 60 mM sodium acetate, pH 4.3). Fluorescence was measured on a Wallac 1420 Victor 2 instrument at settings: Excitation 380 nm, Emission 460 nm. IC50 values were determined using Xlfit curve fitting using model 205.

Broadly, the IC50 is the concentration at which inhibition is half-maximal. In the case of `O=C(NCc1ccc(F)c(F)c1)c1cc2ccccc2n(-c2cccc(C(F)(F)F)c2)c1=O` [Example 2.26, N-(3,4-Difluorobenzyl)-2-oxo-1-[3-(trifluoromethyl)phenyl]-1,2-dihydroquinoline-3-carboxamide], the concentration for half-maximal inhibition (IC50) was 0.5 µM.

For the compound `O=C(NCC1COc2ccccc2O1)c1cc2ccccc2n(-c2cccc(C(F)(F)F)c2)c1=O` (stereo not drawn) [Example 2.51, N-(2,3-Dihydro-1,4-benzodioxin-2-ylmethyl)-2-oxo-1-[3-(trifluoromethyl)phenyl]-1,2-dihydroquinoline-3-carboxamide], the half-inhibitory concentration (IC50) was 0.39 µM.

As for `CC(=O)Nc1ccc(CNC(=O)c2cc3ccccc3n(-c3cccc(C(F)(F)F)c3)c2=O)cc1` [Example 2.66, N-[4-(Acetylamino)benzyl]-2-oxo-1-[3-(trifluoromethyl)phenyl]-1,2-dihydroquinoline-3-carboxamide], the IC50 was determined as 0.32 µM.

Values taken from US20070010551A1, “Quinoline derivatives as neutrophil elastase inhibitors and their use” (priority 2003, published 2007).
